From PMC4836387 (ACS Chemical Biology, 2016)

Experiments:
[1] = tested on: lentiviral vector carrying WT IN; test: single-round HIV-1 infectivity assay, WT IN; type: cell-based; conditions: Human immunodeficiency virus 1, read-out: EC50 (WT IN)
[2] = tested on: HIV-1 vector carrying IN mutant H51Y/R263K; test: single-round HIV-1 infectivity assay, H51Y/R263K IN; type: cell-based; conditions: for EC50: Human immunodeficiency virus 1, read-out: EC50 H51Y/R263K; for Fold-change (FC) in EC50 relative to WT, H51Y/R263K: in parentheses
[3] = tested on: HIV-1 vector carrying IN mutant G118R; test: single-round HIV-1 infectivity assay, G118R IN; type: cell-based; conditions: for EC50: Human immunodeficiency virus 1, read-out: EC50 G118R; for Fold-change (FC) in EC50 relative to WT, G118R: in parentheses
[4] = tested on: HIV-1 vector carrying IN mutant Y143R; test: single-round HIV-1 infectivity assay, Y143R IN; type: cell-based; conditions: for EC50: Human immunodeficiency virus 1, read-out: EC50 Y143R; for Fold-change (FC) in EC50 relative to WT, Y143R: in parentheses
[5] = tested on: HIV-1 vector carrying IN mutant E92Q; test: single-round HIV-1 infectivity assay, E92Q IN; type: cell-based; conditions: for EC50: Human immunodeficiency virus 1, read-out: EC50 E92Q; for Fold-change (FC) in EC50 relative to WT, E92Q: in parentheses
[6] = tested on: HIV-1 vector carrying IN mutant G140S/Q148H; test: single-round HIV-1 infectivity assay, G140S/Q148H IN; type: cell-based; conditions: for Fold-change (FC) in EC50 relative to WT, G140S/Q148H: in parentheses
[7] = tested on: HIV-1 vector carrying IN mutant T66I; test: single-round HIV-1 infectivity assay, T66I IN; type: cell-based; conditions: for EC50: Human immunodeficiency virus 1, read-out: EC50 T66I; for Fold-change (FC) in EC50 relative to WT, T66I: in parentheses
[8] = tested on: HIV-1 vector carrying IN mutant N155H; test: single-round HIV-1 infectivity assay, N155H IN; type: cell-based; conditions: for EC50: Human immunodeficiency virus 1, read-out: EC50 N155H; for Fold-change (FC) in EC50 relative to WT, N155H: in parentheses
in vitro = conditions: human
HIV-1 IN = HIV-1 IN (Human immunodeficiency virus type 1 group M subtype B, UniProt P12497); test: in vitro IN assay, strand transfer; type: biochemical; conditions: in vitro ST inhibitory IC50, text values
[9] = tested on: HIV-1 vector carrying IN mutant R263K; test: single-round HIV-1 infectivity assay, R263K IN; type: cell-based; conditions: for EC50: Human immunodeficiency virus 1, read-out: EC50 R263K; for Fold-change (FC) in EC50 relative to WT, R263K: in parentheses
[10] = tested on: HIV-1 vector carrying IN mutant H51Y; test: single-round HIV-1 infectivity assay, H51Y IN; type: cell-based; conditions: for EC50: Human immunodeficiency virus 1, read-out: EC50 H51Y; for Fold-change (FC) in EC50 relative to WT, H51Y: in parentheses

Row | Structure (SMILES) | EC50 [1] | EC50 [2] | Fold-change (FC) in EC50 relative to WT, H51Y/R263K [2] | EC50 [3] | Fold-change (FC) in EC50 relative to WT, G118R [3] | EC50 [4] | Fold-change (FC) in EC50 relative to WT, Y143R [4] | EC50 [5] | Fold-change (FC) in EC50 relative to WT, E92Q [5] | Fold-change (FC) in EC50 relative to WT, G140S/Q148H [6] | EC50 [7] | Fold-change (FC) in EC50 relative to WT, T66I [7] | EC50 [8] | Fold-change (FC) in EC50 relative to WT, N155H [8] | CC50 (in vitro) | EC50 [9] | Fold-change (FC) in EC50 relative to WT, R263K [9] | EC50 [10] | Fold-change (FC) in EC50 relative to WT, H51Y [10] | also measured
1 | Nc1c(C(=O)NCc2ccc(F)cc2F)c(=O)n(O)c2ncc(CCCO)cc12 [4b] | 3.1 ± 2 nM | 15 ± 2 nM | 4.8 | 10 ± 1.6 nM | 3.2 | 2.8 ± 0.9 nM | 0.90 | 4.8 ± 2 nM | 1.5 | 4.3 | 1.1 ± 0.1 nM | 0.35 | 8.5 ± 3.1 nM | 2.7 | > 250000 nM | 2.5 ± 0.8 nM | 0.81 | 2.6 ± 0.5 nM | 0.84 | IC50 (HIV-1 IN): 11 nM
2 | Nc1c(C(=O)NCc2ccc(F)cc2F)c(=O)n(O)c2ncc(CCCCCO)cc12 [4c] | 1.3 ± 0.2 nM | 2.6 ± 1.4 nM | 2.0 | 5.3 ± 1.6 nM | 4.1 | 3 ± 0.5 nM | 2.3 | 3.8 ± 2.3 nM | – | 5.3 | 0.93 ± 0.24 nM | 0.72 | 2.4 ± 0.8 nM | 1.8 | > 250000 nM | 2.6 ± 0.1 nM | 2.0 | 3.8 ± 0.6 nM | 2.9 | EC50 ([6]; read-out: EC50 G140S/Q148H, viral vector carrying IN mutations G140S/Q148H): 6.9 ± 2.3 nM
3 | Nc1c(C(=O)NCc2ccc(F)cc2F)c(=O)n(O)c2ncc(CCCCCCO)cc12 [4d] | 2.3 ± 0.6 nM | 5.2 ± 1.6 nM | 2.3 | 6.4 ± 2.5 nM | 2.8 | 2.1 ± 1.4 nM | 0.91 | 0.74 ± 0.13 nM | 0.32 | 4.1 | 0.5 ± 0.35 nM | 0.22 | 2.7 ± 1 nM | 1.2 | > 250000 nM | 8.4 ± 2.3 nM | 3.7 | 1.6 ± 0.1 nM | 0.70 | –
4 | Nc1c(C(=O)NCc2ccc(F)cc2F)c(=O)n(O)c2ncc(CCCCCCCCO)cc12 [4e] | 3.7 ± 0.4 nM | 22 ± 8 nM | 5.9 | 11 ± 1 nM | 3.0 | 3.2 ± 0.8 nM | 0.86 | 2.6 ± 0.2 nM | 0.70 | 2.1 | 1.7 ± 0.5 nM | 0.46 | 6.5 ± 2.7 nM | 1.8 | > 250000 nM | 3.8 ± 1.1 nM | 1.0 | 4.8 ± 1.1 nM | 1.3 | IC50 (HIV-1 IN): 5 nM
5 | Nc1c(C(=O)NCc2ccc(F)cc2F)c(=O)n(O)c2ncc(CCS(=O)(=O)c3ccccc3)cc12 [4f] | 2 ± 0.1 nM | 5.3 ± 0.4 nM | 2 | 11.4 ± 3.5 nM | 6 | 0.6 ± 0.1 nM | 0.3 | 1.2 ± 0.6 nM | 0.6 | 3 | 0.7 ± 0.1 nM | 0.3 | 2.1 ± 1.2 nM | 1 | > 250000 nM | 5.3 ± 0.8 nM | 2 | 0.8 ± 0.5 nM | 0.4 | –
6 | Cc1nnc(C(=O)NC(C)(C)c2nc(C(=O)NCc3ccc(F)cc3)c(O)c(=O)n2C)o1 [compound 1, raltegravir, reference compound] | – | 6 ± 2.3 nM | – | – | – | – | – | 30 ± 10 nM | – | – | 2.8 ± 0.4 nM | – | – | – | – | – | – | 3.4 ± 0.2 nM | – | –
7 | COc1cc2c(cc1Cc1cccc(Cl)c1F)c(=O)c(C(=O)O)cn2[C@H](CO)C(C)C [compound 2, elvitegravir, reference compound] | 6.4 ± 0.8 nM | 53 ± 18 nM | 8 | 21 ± 10 nM | 3.3 | 7.9 ± 2.3 nM | 1.2 | 154 ± 34 nM | 24 | 891 | 66 ± 1 nM | 10 | 90 ± 18 nM | 14 | > 250000 nM | 10 ± 6 nM | 1.6 | 4.5 ± 2.1 nM | 0.7 | –
8 | C[C@@H]1CCO[C@H]2Cn3cc(C(=O)NCc4ccc(F)cc4F)c(=O)c(O)c3C(=O)N12 [compound 3, dolutegravir, reference compound] | – | 16 ± 2 nM | – | – | – | – | – | 2.3 ± 0.4 nM | – | – | 0.9 ± 0.8 nM | – | – | – | – | – | – | 3.2 ± 0.2 nM | – | –
